As a reminder, the IC50 is the concentration needed to halve the response being measured.

The text below walks through data of patent US7829560B2, “1,4-disubstituted naphthalenes as inhibitors of P38 MAP kinase” (Arqule, Inc., priority 2004, dated 2010).

One assay deals with T1, p38α (Homo sapiens, UniProt Q16539).
T1 construct: p38 MAP Kinases are recombinant human full-length proteins with an amino-terminal GST fusion; GST (N); purchased Upstate Biotechnology Inc; host or cells: E. coli
Put plainly: p38 MAP Kinase assay: inhibition of ATF2 phosphorylation, ELISA. Type of assay: biochemical. Conditions: for inhibition at 10 µM: substrate ATF2, read-out: [ENZ] P38 ALPHA, PCT INH, ELISA (10 uM;ATF2) (Percent); for IC50: ATF2 phosphorylation, read-out: [ENZ] P38 ALPHA, IC50, ELISA. An outline of the steps: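 GST-tagged full-length human p38 MAP kinase with GST-ATF2 (aa 19–96; 1.25 μM) and 40 μM ATP in HEPES pH 7.5 buffer, without (Method I) or with (Method II) 1% human serum albumin. Compound pre-incubated 15 min at room temperature; reaction 30 min at 37 °C; ATF2 Thr69 phosphorylation measured by ELISA (A450).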
A general note: In an ELISA, binding on a coated surface is turned into a signal by an enzyme label.

For assay [1], the system named is TNFα release from THP-1 cells. Kind of assay: Inhibition of TNFα release from LPS-stimulated THP-1 cells, ELISA. Type of assay: cell-based. Conditions: Homo sapiens, THP-1, THP-1 cells, read-out: [CELL] THP-1, IC50, TNF ALPHA, ELISA. The text has this: Compounds of the invention are screened for the ability to inhibit TNFα and IL-1β release from THP-1 cells stimulated with lipopolysaccharide (LPS) in vitro. The ability of compounds to inhibit TNFα and IL-1β release in this in vitro assay is correlated with the inhibition of p38 activity and TNFα and IL-1β expression in vivo, and is therefore an indicator of potential in vivo therapeutic activity (Lee J. C. et al, Ann. N.Y. Acad. Sci. 696: 149-170, 1993 and Nature, 372: 739-746, 1994).
Materials: THP-1 cells from ATCC (TIB202) are maintained at 37° C., 5% CO2 in RPMI 1640 media (available from MediaTech, Herndon, Va.) containing 4.5 g/L glucose, supplemented with 10% fetal bovine serum, 1% penicillin/streptomycin and 50 μM β-mercaptoethanol.
Methods: Test compounds are initially dissolved in RPMI media with 1% DMSO (v/v). Compounds are then serially diluted in RPMI media for all subsequent dilutions. The assay is performed under sterile conditions. THP-1 cells at a culture density of 6-8×10^5 cells/ml are collected and resuspended in the RPMI media at 10^6 cells/ml containing 10% fetal bovine serum, no serum or 1% human serum albumin (HSA). 100 μl of resuspended cells are added to each well, which contain 100 μl of a test compound. Test compounds are prepared at twice the final concentration. Final DMSO concentration is no more than 0.5% (v/v). Cells are preincubated with compound for 30 minutes at 37° C., 5% CO2 prior to stimulation with lipopolysaccharide (LPS) (Sigma L-2880, 4 mg/ml stock in PBS). The final LPS concentration in each well is 10 or 30 μg/ml for TNFα and IL-1β release, respectively. Unstimulated control cell suspensions receive PBS vehicle only. Cell mixtures are incubated for 18 or 48 hours for TNFα and IL-1β prelease, respectively. 150 μl of supernatants are taken and transferred to a fresh plate and stored at −20° C. until further analysis. TNFα and IL-1β levels are measured using ELISA kits from Biosource (Catalog no. KHC3012 for TNFα; KAC1192 for IL-1β). A SpectraMAX 250 is used as the plate reader. Analysis is performed by non-linear regression to generate a dose response curve. The calculated IC50 value is the concentration of the test compound that causes a 50% decrease in TNFα or IL-1β levels.

T1 sequence (Q16539 whole entry, the tested form may be a part): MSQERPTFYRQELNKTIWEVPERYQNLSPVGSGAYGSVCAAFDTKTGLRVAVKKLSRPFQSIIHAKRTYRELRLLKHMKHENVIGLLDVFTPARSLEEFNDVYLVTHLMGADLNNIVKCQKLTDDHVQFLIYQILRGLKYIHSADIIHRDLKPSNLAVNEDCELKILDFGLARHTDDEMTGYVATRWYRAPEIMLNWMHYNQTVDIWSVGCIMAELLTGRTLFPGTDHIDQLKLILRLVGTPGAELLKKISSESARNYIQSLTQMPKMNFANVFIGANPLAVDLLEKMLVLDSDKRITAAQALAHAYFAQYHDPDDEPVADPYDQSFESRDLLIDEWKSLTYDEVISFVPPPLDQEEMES

As for `Cc1cccc(-c2cccc(C(=O)Nc3ccc(OCCN4CCOCC4)c4ccccc34)c2)c1` [Compound B104], at p38α, the inhibition at 10 µM was 66% and the IC50 was 965 nM. Also, the 50% inhibitory concentration (IC50) in assay [1] came to 4440 nM.

As for `COc1cccc(OC)c1-c1cccc(C(=O)Nc2ccc(OCCN3CCOCC3)c3ccccc23)c1` [Compound B108], at p38α, the inhibition at 10 µM was found to be 42% and the half-maximal inhibitory concentration (IC50) was over 10000 nM. Besides, in assay [1], the IC50 was 2260 nM.

With `N#Cc1cccc(-c2cccc(C(=O)Nc3ccc(OCCN4CCOCC4)c4ccccc34)c2)c1` [Compound B110], on p38α, the inhibition at 10 µM worked out at 61% and the IC50 was over 1000 nM. In assay [1], the IC50 was found to be 6430 nM.

Turning to `O=C(Nc1ccc(OCCN2CCOCC2)c2ccccc12)c1ccnc(N2CCOCC2)c1` [Compound B122, 2-Morpholin-4-yl-N-[4-(2-morpholin-4-yl-ethoxy)-naphthalen-1-yl]-isonicotinamide], at p38α, the inhibition at 10 µM is 73.5% and the IC50 was 3520 nM. Also, the IC50 in assay [1] is 2100 nM.

In the case of `CC(=O)N1CCN(c2cc(C(=O)Nc3ccc(OCCN4CCOCC4)c4ccccc34)ccn2)CC1` [Compound B123, 2-(4-Acetyl-piperazin-1-yl)-N-[4-(2-morpholin-4-yl-ethoxy)-naphthalen-1-yl]-isonicotinamide], on p38α, the inhibition at 10 µM was 50.5% and the IC50 is 5750 nM. Moreover, in assay [1], the half-inhibitory concentration (IC50) came to 6150 nM.

Regarding `CC1CCCN(c2cc(C(=O)Nc3ccc(OCCN4CCOCC4)c4ccccc34)ccn2)C1` (centres unmarked) [Compound B126, 3-Methyl-3,4,5,6-tetrahydro-2 H-[1,2′]bipyridinyl-4′-carboxylic acid [4-(2-morpholin-4-yl-ethoxy)-naphthalen-1-yl]-amide], at p38α, the inhibition at 10 µM turned out to be 85% and the IC50 turned out to be 451 nM. Moreover, the IC50 in assay [1] was determined as 934 nM.

In the case of `O=C(Nc1ccc(OCCN2CCOCC2)c2ccccc12)c1ccnc(N2CCCCC2)c1` [Compound B127, 3,4,5,6-Tetrahydro-2 H-[1,2′]bipyridinyl-4′-carboxylic acid [4-(2-morpholin-4-yl-ethoxy)-naphthalen-1-yl]-amide], the inhibition at 10 µM at p38α was found to be 68.5%. For the same molecule, the IC50 at p38α stood at 1880 nM; in assay [1], 782 nM.

Consider `CC1CCN(c2cc(C(=O)Nc3ccc(OCCN4CCOCC4)c4ccccc34)ccn2)CC1` [Compound B128, 4-Methyl-3,4,5,6-tetrahydro-2 H-[1,2′]bipyridinyl-4′-carboxylic acid [4-(2-morpholin-4-yl-ethoxy)-naphthalen-1-yl]-amide], for which, on p38α, the inhibition at 10 µM amounted to 82% and the half-inhibitory concentration (IC50) came out at 1150 nM. Moreover, the IC50 in assay [1] came to 8710 nM.

As for `CC1CCCN1c1cc(C(=O)Nc2ccc(OCCN3CCOCC3)c3ccccc23)ccn1` (centres unmarked) [Compound B130, 2-(2-Methyl-pyrrolidin-1-yl)-N-[4-(2-morpholin-4-yl-ethoxy)-naphthalen-1-yl]-isonicotinamide], at p38α, the inhibition at 10 µM is 88.5% and the IC50 is 822 nM. In assay [1], the IC50 came to 2340 nM.

Turning to `CCN(C)c1cc(C(=O)Nc2ccc(OCCN3CCOCC3)c3ccccc23)ccn1` [Compound B133, 2-(Ethyl-methyl-amino)-N-[4-(2-morpholin-4-yl-ethoxy)-naphthalen-1-yl]-isonicotinamide], on p38α, the inhibition at 10 µM is 52% and the IC50 was 7680 nM. Also, the half-maximal inhibitory concentration (IC50) in assay [1] worked out at 8500 nM.

On to `Cc1cc(C(=O)Nc2ccc(OCCN3CCOCC3)c3ccccc23)cc(N2CCCC(C)C2)n1` (centres unmarked) [Compound B153, 3,6′-Dimethyl-3,4,5,6-tetrahydro-2H-[1,2′]bipyridinyl-4′-carboxylic acid [4-(2-morpholin-4-yl-ethoxy)-naphthalen-1-yl]-amide], for which, at p38α, the inhibition at 10 µM was found to be 88% and the IC50 worked out at 622 nM. Besides, the IC50 in assay [1] is 1030 nM.

Turning to `Cc1cc(C(=O)Nc2ccc(OCCN3CCOCC3)c3ccccc23)cc(N2CCC(C)CC2)n1` [Compound B154, 4,6′-Dimethyl-3,4,5,6-tetrahydro-2H-[1,2′]bipyridinyl-4′-carboxylic acid [4-(2-morpholin-4-yl-ethoxy)-naphthalen-1-yl]-amide], on p38α, the inhibition at 10 µM was determined as 71% and the IC50 came out at 2720 nM. The 50% inhibitory concentration (IC50) in assay [1] was 2530 nM.

For the molecule `Cc1cc(C(=O)Nc2ccc(OCCN3CCOCC3)c3ccccc23)cc(N2CCCC2C)n1` (centres unmarked) [Compound B155, 2-Methyl-6-(2-methyl-pyrrolidin-yl)-N-[4-(2-morpholin-4-yl-ethoxy)-naphthalen-1-yl]-isonicotinamide], at p38α, the inhibition at 10 µM came out at 89% and the half-inhibitory concentration (IC50) worked out at 745 nM. Besides, the IC50 in assay [1] is 2450 nM.

Take `O=C(Nc1ccc(OCCN2CCC(O)CC2)c2ccccc12)c1cc(F)cc(N2CCCCC2)c1` [Compound B158, 3-Fluoro-N-{4-[2-(4-hydroxypiperidin-1-yl)-ethoxy]-naphthalen-1-yl}-5-piperidin-1-yl-benzamide]: the inhibition at 10 µM on p38α came to 72%. Further, the IC50 on p38α is 2670 nM; in assay [1] it was over 10000 nM.

Regarding `O=C(Nc1ccc(OCCN2CCC3(CC2)OCCO3)c2ccccc12)c1cc(F)cc(N2CCCCC2)c1` [Compound B159, N-{4-[2-(1,4-Dioxa-8-aza-spiro[4.5]dec-8-yl)-ethoxy]-naphthalen-1-yl}-3-fluoro-5-piperidin-1-yl-benzamide], the inhibition at 10 µM on p38α came to 72.5%. The half-inhibitory concentration (IC50) on p38α is 1090 nM; in assay [1], over 10000 nM.

As for `CCOC(=O)C1CCN(CCOc2ccc(NC(=O)c3cc(F)cc(N4CCCCC4)c3)c3ccccc23)CC1` [Compound B160, 1-{2-[4-(3-Fluoro-5-piperidin-1-yl-benzoylamino)-naphthalen-1-yloxy]-ethyl}-piperidine-4-carboxylic acid ethyl ester], on p38α, the inhibition at 10 µM came to 58.5% and the IC50 is 1820 nM. For the same molecule, in assay [1], the 50% inhibitory concentration (IC50) is over 10000 nM.

Take `O=C(Nc1ccc(OCCCN2CCC(O)CC2)c2ccccc12)c1cc(F)cc(N2CCCCC2)c1` [Compound B162, 3-Fluoro-N-{4-[3-(4-hydroxy-piperidin-1-yl)-propoxy]-naphthalen-1-yl}-5-piperidin-1-yl-benzamide]: on p38α, the inhibition at 10 µM amounted to 59.5% and the concentration for half-maximal inhibition (IC50) stood at 9890 nM. Moreover, the 50% inhibitory concentration (IC50) in assay [1] was over 10000 nM.

For the molecule `O=C(Nc1ccc(OCCN2CCC(CO)CC2)c2ccccc12)c1cc(F)cc(N2CCCCC2)c1` [Compound B163, 3-Fluoro-N-{4-[2-(4-hydroxymethyl-piperidin-1-yl)-ethoxy]-naphthalen-1-yl}-5-piperidin-1-yl-benzamide], the inhibition at 10 µM on p38α is 57%. The IC50 at p38α was 4840 nM; in assay [1], over 10000 nM.

Consider `CC(=O)N1CCN(CCOc2ccc(NC(=O)c3cc(F)cc(N4CCCCC4)c3)c3ccccc23)CC1` [Compound B167, N-{4-[2-(4-Acetyl-piperazin-1-yl)-ethoxy]-naphthalen-1-yl}-3-fluoro-5-piperidin-1-yl-benzamide], for which the results for the IC50 (at p38α; in assay [1]) were 851 nM and over 10000 nM, respectively.

As to `CC(C)(C)CNc1cccc(C(=O)Nc2ccc(OCCN3CCOCC3)c3ccccc23)c1` [Compound B173, 3-(2,2-Dimethyl-propylamino)-N-[4-(2-morpholin-4-yl-ethoxy)-naphthalen-1-yl]-benzamide], on p38α, the inhibition at 10 µM is 89.5%. In addition, the IC50 at p38α amounted to 735 nM; in assay [1] it was 2280 nM.

As for `CC1CCN(c2cc(F)cc(C(=O)Nc3ccc(N4CCN(C(=O)OC(C)(C)C)CC4)c4ccccc34)c2)CC1` [Compound B192], the IC50 on p38α is over 10000 nM; in assay [1], 4720 nM.

In the case of `CC1CCN(c2cc(F)cc(C(=O)Nc3ccc(OCc4nn[nH]n4)c4ccccc34)c2)CC1` [Compound B193, 3-Fluoro-5-(4-methylpiperidin-1-yl)-N-[4-(2H-tetrazol-5-ylmethoxy)-naphthalen-1-yl]-benzamide], the figures for the half-inhibitory concentration (IC50) (on p38α; in assay [1]) were 3840 nM and over 10000 nM, respectively.

As to `CC(=O)N1CCN(c2ccc(NC(=O)c3cc(F)cc(N4CCC(C)CC4)c3)c3ccccc23)CC1` [Compound B196], the half-maximal inhibitory concentration (IC50) is 3190 nM on p38α and over 10000 nM in assay [1].
